# Experiments:
# 5637 (Bladder Carcinoma) = assay: Bliss excess, mean over the matrix (fraction); higher = more synergy
# In short: (§1)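 Cell lines in DMEM/F12 or RPMI with 10% FBS were plated in 1536-well plates, held 24 hours at 37°C, 5% CO2, then given two-drug dose matrices for 72 hours (DMSO typically 0.2%). Viability was read by CellTiter-Glo 2.0 luminescence and scaled as inhibition from 0 (vehicle wells) to 1 (blank wells). Combination Emax is the second-highest inhibition in the matrix; Bliss excess is observed combination effect minus expected EA + EB − EA·EB, EA and EB being single-agent effects.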
# A204 (Rhabdomyosarcoma) = assay: as above
# In short: as §1
# COLO-792 (Melanoma) = assay: as above
# In short: as §1
# [1] = test system: DU-4475 (Breast Carcinoma); assay: as above
# In short: as §1
# [2] = test system: ESO26 (Esophageal Adenocarcinoma); assay: as above
# In short: as §1
# [3] = test system: G-402 (Other Solid Carcinomas); assay: as above
# In short: as §1
# [4] = test system: GCT (Other Solid Carcinomas); assay: as above
# In short: as §1
# [5] = test system: JIMT-1 (Breast Carcinoma); assay: as above
# In short: as §1
# [6] = test system: JVM-2 (B-Cell Non-Hodgkin's Lymphoma); assay: as above
# In short: as §1
# [7] = test system: KYSE-140 (Esophageal Squamous Cell Carcinoma); assay: as above
# In short: as §1
# [8] = test system: LS-411N (Colorectal Carcinoma); assay: as above
# In short: as §1
# NB13 (Neuroblastoma) = assay: as above
# In short: as §1
# [9] = test system: huH-1 (Hepatocellular Carcinoma); assay: as above
# In short: as §1
# 769-P (Kidney Carcinoma) = assay: combination Emax (second highest fraction inhibited in the dose matrix, 72 h); higher = more inhibition; extreme values may be limits of the assay
# In short: as §1
# [10] = test system: A2780 (Ovarian Carcinoma); assay: as above
# In short: as §1
# [11] = test system: CGTH-W-1 (Thyroid Gland Carcinoma); assay: as above
# In short: as §1
# EW-7 (Ewing's Sarcoma) = assay: as above
# In short: as §1
# [12] = test system: HCC1395 (Breast Carcinoma); assay: as above
# In short: as §1
# [13] = test system: JHH-2 (Hepatocellular Carcinoma); assay: as above
# In short: as §1
# [14] = test system: SK-HEP-1 (Hepatocellular Carcinoma); assay: as above
# In short: as §1
# 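Throughout, for Bliss excess, mean over the matrix: after 72 h of two-drug dosing.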
SMILES,Bliss excess (5637 (Bladder Carcinoma)),Bliss excess (A204 (Rhabdomyosarcoma)),Bliss excess (COLO-792 (Melanoma)),Bliss excess [1],Bliss excess [2],Bliss excess [3],Bliss excess [4],Bliss excess [5],Bliss excess [6],Bliss excess [7],Bliss excess [8],Bliss excess (NB13 (Neuroblastoma)),Bliss excess [9],combination Emax (769-P (Kidney Carcinoma)),combination Emax [10],combination Emax [11],combination Emax (EW-7 (Ewing's Sarcoma)),combination Emax [12],combination Emax [13],combination Emax [14]
"CN(CCO)CC[C@H](CSc1ccccc1)Nc1ccc(S(=O)(=O)NC(=O)c2ccc(N3CCC([C@@H](O)c4ccccc4-c4ccc(Cl)cc4)CC3)cc2)cc1S(=O)(=O)C(F)(F)F [AZD4320] + Cc1cc2ncnn2cc1Nc1ncc2c(n1)n(C1CCOCC1)c(=O)n2C [AZD7648] (first compound max 1 µM, 7x7, partner max 10 µM)",-0.0359,-0.0551,0.0951,0.0627,-0.0208,-0.0144,-0.0504,-0.0513,-0.0111,-0.0866,-0.0132,-0.0223,-0.0586,0.574,0.51,0.163,0.966,0.263,0.448,0.162
"CN(CCO)CC[C@H](CSc1ccccc1)Nc1ccc(S(=O)(=O)NC(=O)c2ccc(N3CCC([C@@H](O)c4ccccc4-c4ccc(Cl)cc4)CC3)cc2)cc1S(=O)(=O)C(F)(F)F [AZD4320] + Cn1cnc2c(F)c(Nc3ccc(Br)cc3Cl)c(C(=O)NOCCO)cc21 [Selumetinib] (first compound max 1 µM, 7x7, partner max 3 µM)",-0.0332,-0.0054,0.0279,0.0444,0.0111,0.0153,0.0789,0.0367,0.025,0.0178,0.0165,0.0039,-0.0106,0.36,0.512,0.342,0.968,0.281,0.452,0.603
"Cc1cc2ncnn2cc1Nc1ncc2c(n1)n(C1CCOCC1)c(=O)n2C [AZD7648] + C=CCn1c(=O)c2cnc(Nc3ccc(N4CCN(C)CC4)cc3)nc2n1-c1cccc(C(C)(C)O)n1 [AZD1775] (first compound max 10 µM, partner max 1 µM)",0.0026,-0.0041,0.0087,-0.051,-0.0641,0.0111,-0.0309,0.0463,-0.0458,0.0004,-0.0318,-0.0531,0.0313,0.829,0.827,0.265,0.898,0.594,0.7,0.513
"Cc1cc2ncnn2cc1Nc1ncc2c(n1)n(C1CCOCC1)c(=O)n2C [AZD7648] + CCN(CCO)CCCOc1ccc2c(Nc3cc(CC(=O)Nc4cccc(F)c4)[nH]n3)ncnc2c1 [AZD2811] (first compound max 10 µM, 7x7, partner max 1 µM)",0.0149,0.0034,-0.0769,0.0035,-0.0299,0.0421,0.0625,-0.0141,0.0382,0.033,0.0255,0.056,0.0008,0.416,0.686,0.338,0.596,0.363,0.446,0.395
"Cc1cc2ncnn2cc1Nc1ncc2c(n1)n(C1CCOCC1)c(=O)n2C [AZD7648] + CN(C)CCCOc1ccc(-c2ccc3ncc4c(c3c2)n(C2CCOCC2)c(=O)n4C)cn1 [AZD0156] (first compound max 10 µM, 7x7, partner max 1 µM)",-0.0004,-0.0372,0.036,-0.0209,-0.031,-0.0271,0.0042,0.0217,-0.0297,-0.0325,-0.0081,-0.0173,0.0674,0.264,0.609,0.228,0.682,0.366,0.491,0.23
"Cc1cc2ncnn2cc1Nc1ncc2c(n1)n(C1CCOCC1)c(=O)n2C [AZD7648] + C[C@@H]1COCCN1C2=NC(=NC(=C2)C3(CC3)[S@](=N)(=O)C)C4=C5C=CNC5=NC=C4 [AZD6738] (first compound max 10 µM, 7x7, partner max 10 µM)",-0.0289,-0.0105,0.0187,0.0019,-0.0389,0.0185,0.0097,-0.0238,-0.0555,-0.0248,-0.0185,-0.0124,0.02,0.819,0.806,0.317,0.924,0.748,0.736,0.382
"Cc1cc2ncnn2cc1Nc1ncc2c(n1)n(C1CCOCC1)c(=O)n2C [AZD7648] + O=C(c1cc(Cc2n[nH]c(=O)c3ccccc23)ccc1F)N1CCN(C(=O)C2CC2)CC1 [Olaparib] (first compound max 10 µM, 7x7, partner max 10 µM)",-0.0198,-0.0802,-0.0435,0.0289,-0.003,-0.0814,-0.0488,-0.0191,-0.0275,-0.0146,-0.0195,-0.0247,-0.0557,0.232,0.576,0.122,0.536,0.4,0.473,0.242
